Reference: patent US12599548B2, “Method of treating oxidative stress in skin and compositions therefor” (The Procter & Gamble Company, priority 2020, dated 2026)

System: Keratinocytes (H-tert-keratinocytes) subjected to oxidative stress
Assay: Oxidative Stress Test (cellular ATP level, ATP Glo luminescence)
Format: cell-based, human
Conditions: 90 minutes
Experimental: This test method provides a suitable way to determine the ability of a test agent to improve cellular ATP production in cells subjected to oxidative stress.
Keratinocytes (e.g., H-tert-keratinocytes from University of Texas Southwestern) are cultured in T150 flasks in EpiLife Medium (e.g., catalogue #MEPICFPRF500 from Thermo Fisher Scientific) supplemented with human keratinocyte growth supplement (e.g., catalogue #S-001-5 from Thermo Fisher Scientific) and 1% penicillin/streptomycin (e.g., catalogue #15140-122 from Thermo Fisher Scientific). When the keratinocytes reach ˜70% confluency, they are plated out into 96 well plates (white, clear bottom with 20,000 cells/well). Incubate the plates for 24 hours before the experimental stress and treatment are applied.
The 96 well plate is divided into three groups of samples (wells) as follows: (i) no stress and no treatment is applied, (ii) stress is applied but no treatment and (iii) stress and treatment are both applied. In combination experiments, stress plus 2 treatments may be applied. For the no stress/no treatment samples (i.e., group (i) above), the culture medium is simply refreshed. For the stressed samples (i.e., group (ii) and (iii) above), culture medium containing 400 μM hydrogen peroxide (HOOH) is used to replace the medium. For the treatment samples (i.e., group (iii) above), immediately after adding the HOOH, pipette the treatment(s) into the wells from a 100× master stock. Return the plates to the CO2 incubator for 90 minutes before measuring ATP.
ATP is measured by removing the media from the samples and replacing it with ATP Glo® reagent (available from Promega, Madison, WI), or equivalent, per manufacturer's instructions. After 10 minutes of exposure at room temperature, the luminescence of each sample can be measured using a Perkin Elmer ENVISION brand plate reader or equivalent. Luminescent counts are directly proportional to ATP level in the cells. Record the luminescent counts for each sample.
Replicates of each treatment group are averaged together, and standard p-value calculations are used (2-sided, equal variance) to calculate significance. In cases where 2 treatments appear to synergistically enhance ATP levels, the results of the combined treatments can be compared to the sum of the individual treatments to determine a synergy factor. The synergy factor is calculated as the ratio of the observed effect from the combined treatments divided by the sum of the results from each individual treatment.
The test agents used in the Oxidative Stress Test are limited to relatively low concentrations due to cell toxicity. That is, applying high concentrations of the test agent directly to “unprotected” keratinocytes may kill some of all of the cells, which would obviously skew the test results. […]

## CCCCCCCCC(CO)CCCCCC (stereo not shown) [Fatty Alcohol, hexyldecanol]
Fatty Alcohol 0.2 ppm, 400 μM hydrogen peroxide
  Measured ATP level: 368.3
Fatty Alcohol 1 ppm, keratinocytes stressed with 400 μM hydrogen peroxide, luminescent counts
  Measured ATP level: 534.3
Fatty Alcohol 5 ppm, 400 μM hydrogen peroxide
  Measured ATP level: 708.0
Fatty Alcohol 50 ppm, 400 μM hydrogen peroxide
  Measured ATP level: 962.3
